From PMC8404199, “Structure–Activity Relationships of Triple-Action Platinum(IV) Prodrugs with Albumin-Binding Properties and Immunomodulating Ligands” (Journal of Medicinal Chemistry, 2021)
Where two headings read alike, the source gives them in different places.

Experiments:
[1] = tested on: murine CT26 colon cancer cells; assay: MTT cytotoxicity assay in CT26 cells; format: cell-based
Procedure: (§1) Cells were additionally incubated with 5-fold equimolar concentrations of ascorbic acid to increase the reduction rate of the compounds. Cell viability was measured by the MTT-based vitality assay (EZ4U; Biomedica, Vienna, Austria), following the manufacturer’s recommendations.

[2] = tested on: human embryonic kidney cells (HEK293); assay: MTT cytotoxicity assay in non-malignant HEK293 cells; format: cell-based; details: 72 h
Procedure: (§2) The cells were seeded at 3500–6000 cells/well in 96-well plates depending on the proliferation rate of the respective cell line and allowed to recover for 24 h. Subsequently, the cells were treated at indicated concentrations for 48 or 72 h. Cells were additionally incubated with 5-fold equimolar concentrations of ascorbic acid to increase the reduction rate of the compounds. Cell viability was measured by the MTT-based vitality assay (EZ4U; Biomedica, Vienna, Austria), following the manufacturer’s recommendations.

[3] = tested on: human hepatic cell line (WRL68); assay: MTT cytotoxicity assay in non-malignant WRL68 cells; format: cell-based; details: 72 h
Procedure: as §2

[4] = tested on: HCT116 cells; assay: Cellular platinum levels in HCT116 cells by ICP-MS; format: cell-based, human; details: HCT116, 20 μM, 3 h incubation
Procedure: HCT116 cells were seeded at 6 × 10^5 cells/well in a six-well plate and allowed to settle for 24 h. Cells were exposed to drugs at 20 μM for 3 h under normal cell culture conditions. Cells were washed twice with PBS and lysed at RT in 500 μL HNO3 (≥69%, Rotipuran Supra, Carl Roth, Karlsruhe, Germany) for 1 h. 400 μL of the lysate was transferred to 7.6 mL of ultrapure water (18.2 MΩ cm, Milli-Q Advantage, Darmstadt, Germany).
The instrument was tuned on a daily basis.

[5] = tested on: SKOV3 cancer cells; assay: Long-term cytotoxicity assay (crystal violet) in SKOV3 cells; format: cell-based, human; details: 168 h, crystal violet stain, mean ± SD
Procedure: SKOV3 cells were seeded in duplicates at 5000 cells/well in 24-well plates and allowed to recover for 24 h. Subsequently, the cells were treated at the indicated concentrations for 168 h. Cells were fixed with ice-cold methanol (20 min at 4 °C), washed with PBS, and stained with crystal violet. Subsequently, colony formation was inspected, and the fluorescence signal was detected using Typhoon Trio imager (GE Healthcare, Little Chalfont, UK) at 610/30 nm BP and analyzed by ImageJ software.

[6] = tested on: VM7 melanoma cancer cells; assay: MTT cytotoxicity assay in VM7 cells; format: cell-based, human; details: 72 h
Procedure: as §2

[7] = tested on: human HCT116 colon cancer cells; assay: MTT cytotoxicity assay in HCT116 cells; format: cell-based
Procedure: as §1

[8] = tested on: human SKOV3 cancer cells; assay: MTT cytotoxicity assay in SKOV3 cells; format: cell-based; details: 72 h incubation, with 5 eq. AA; read-out: SKOV3 IC50 values + 5 eq. AA, mean
Procedure: as §2

[9] = tested on: tumor-infiltrating T-cell populations; assay: Flow cytometry of T-cell populations in CT26 tumors and tumor-draining lymph nodes; format: in vivo, Balb/c mice; details: 24 h after single iv treatment equimolar to 9 mg/kg oxaliplatin
Procedure: CT26 cells (5 × 10^5 cells in 50 μL of serum-free RPMI medium) were injected into the right flank of female Balb/c mice (n = 4 per group). On day 7, when the tumors reached a mean tumor volume of ∼170 mm^3, mice were treated once iv with MalEs/IdoCa at a concentration equimolar to 9 mg/kg (dissolved in 20% PG in PBS) or solvent only. After 24 h, the animals were sacrificed, and tumor tissues and the tumor-draining lymph nodes were isolated. Tissues were collected in a tube with 750 μL of ice-cold PBS containing 5% FBS and cut into small pieces. Samples were digested using PBS containing 50 mg/mL collagenase (C2139, Merck, Darmstadt, Germany) and 50 mg/mL DNase I (DN25, Darmstadt, Germany) and filtered several times through a 70 μm cell strainer (734-2761, VWR, Pennsylvania, USA). The samples were centrifuged, and cell pellets were treated with ammonium–chloride–potassium (ACK)-buffer (150 mM NH4Cl, 10 mM KHCO3, 127 μM EDTA, pH 7.2–7.4) to lyse red blood cells and centrifuged in a Würzburg buffer (PBS containing 5% FBS, 5 mM EDTA, 20 μg/mL DNase I).
Cells were washed with PBS and stained using the Aqua Zombie Fixable Viability Kit (423101, BioLegend, California, USA), according to the manufacturer’s instructions. […] The cleaned up data were analyzed using the gating strategy, as shown in Figure S15 for murine tissue and Figure S16 for human co-culture experiment.

[10] = tested on: IDO; assay: LC-HRMS of 1-MDT and Trp metabolites in tumor tissue; format: in vivo, mice; details: 24 h after treatment
Procedure: To 50 mg of tumor tissue, 50 μL of fully ^13C internal standard (labeled yeast extract prepared in 2 mL of H2O; ISOtopic solutions e.U., Vienna, Austria) and 950 μL of 80% MeOH (LC–MS grade, Sigma-Aldrich, Vienna, Austria) were added and homogenized in a Dounce-type glass tissue grinder. The homogenate was collected, the tissue homogenizer was washed twice with 400 μL 80% MeOH (LC–MS grade, Sigma-Aldrich, Vienna, Austria), and the washing solution was added to the homogenate. The samples were vortexed, centrifuged (14,000g, 4 °C, 20 min), and kept on dry ice until further processing. 500 μL of tumor sample aliquots was dried for direct LC–HRMS analysis.
All samples were resuspended in 100 μL of water (supernatant sample: same volume; tumor samples 5-fold concentration) and measured using a 12 min method based on reversed-phase chromatography (column: HSS T3, 1.8 μm, 2.1 × 150 mm, Waters) and high-resolution mass spectrometry (Orbitrap HF, Thermo). For quantification, multi-point calibration with external standard mixes (Kyn, Trp, and kynurenic acid) using co-eluting ^13C internal standards was performed and analyzed by Skyline 20.2.0.286. For 1-MDT, relative quantification based on ^13C Trp normalization was performed.

[11] = Organ distribution of platinum in SKOV3-bearing SCID mice; details: 24 h after single iv dose equimolar to 9 mg/kg oxaliplatin
Procedure: For tissue digestion, approx. 25–50 mg of tissue was weighed into perfluoralkoxy tubes, and 2 mL of HNO3 and 100 μL H2O2 (30%, Suprapur, Merck, Darmstadt, Germany) were added. The solutions were placed on a hot plate and heated up for 7 h using a temperature program with a maximum of 200 °C. The liquids were transferred to 15 mL tubes with the remaining solution being removed by washing twice with 4 mL of ultrapure water.
Platinum concentrations were measured using an Agilent 7800 ICP-QMS instrument (Agilent Technologies, Tokyo, Japan) equipped with an Agilent SPS 4 autosampler (Agilent Technologies, Tokyo, Japan) and a MicroMist nebulizer at a sample uptake rate of approx. 0.2 mL/min. […] All of the measured samples were blank corrected (for the cell culture data, wells containing no cells were used). Elemental standard solutions were purchased from Labkings (Hilversum, The Netherlands). The instrument was tuned on a daily basis.
SKOV3 cells (1.5 × 10^6 cells in 50 μL serum-free medium) were injected subcutaneously into the right flank of male SCID mice. […] Then, the animals were sacrificed by cervical dislocation, and tumors and organs were collected for the measurement with ICP–MS. For plasma isolation, blood was collected in ethylenediaminetetraacetic acid (EDTA)-coated tubes and centrifuged for 10 min at 900g at 4 °C. Plasma was transferred to a new tube and centrifuged once more to remove residual red blood cells.

[12] = tested on: CT26 colon cancer allografts; assay: Anticancer activity against CT26 allografts in Balb/c mice; format: in vivo; details: iv, equimolar to 9 mg/kg oxaliplatin, twice a week for 2 weeks
Procedure: Every day, the animals were monitored for body weight and the enhanced stress level, and the tumor size was measured using a caliper according to the formula length × width^2/2.

O=C1[O][Pt]2([NH][C@@H]3CCCC[C@H]3[NH]2)[O]C1=O [oxaliplatin, reference compound]
IC50 ([1]; 48 h incubation, with 5 equiv AA, read-out: CT26 IC50 values +AA, mean ± SD): 1530 ± 250 nM | IC50 ([1]; 48 h incubation, without AA, read-out: CT26 IC50 values, mean ± SD): 1500 ± 390 nM | IC50 ([1]; 72 h incubation, with 5 eq. AA, read-out: CT26 IC50 values + 5 eq. AA, mean): 2110 nM | IC50 ([1]; 72 h incubation, without AA, read-out: CT26 IC50 values, mean): 1900 nM | IC50 [2]: 2100 nM | IC50 [3]: 8350 nM | cellular platinum uptake (in words) [4]: taken up by the cells much more efficiently than any of the platinum(IV) prodrugs | IC50 [5]: 6200 ± 1100 nM | IC50 [6]: 3940 nM | IC50 ([7]; 48 h incubation, with 5 equiv AA, read-out: HCT116 IC50 values +AA, mean ± SD): 670 ± 10 nM | IC50 ([7]; 48 h incubation, without AA, read-out: HCT116 IC50 values, mean ± SD): 720 ± 10 nM | IC50 ([7]; 72 h incubation, with 5 eq. AA, read-out: HCT116 IC50 values + 5 eq. AA, mean): 740 nM | IC50 ([7]; 72 h incubation, without AA, read-out: HCT116 IC50 values, mean): 760 nM | IC50 [8]: 43400 nM

Cn1cc(C[C@@H](NC(=O)[O][Pt]2([O]C(=O)CCCCCN3C(=O)C=CC3=O)[O]C(=O)C(=O)[O]2)C(=O)O)c2ccccc21.N[C@@H]1CCCC[C@H]1N [MalEs/IdoCa, (OC-6-34)-[(R)-(1-Carboxy-2-(1-methyl-1H-indol-3-yl)ethyl)carbamato][(1R,2R)-1,2-cyclohexanediamino][6-(2,5-dioxo-2,5-dihydro-1H-pyrrol-1-yl)hexanoato]oxalatoplatinum(IV)]
immune cell population in tumor-draining lymph nodes [9]: no effect | ratio of CD4+ to CD8+ T cells in the malignant tissue [9]: significant shift | IDO activity in tumor, Trp to Kyn ratio (in words) ([10]; compared to solvent- or MalCa/IdoEs-treated animals): inhibition of IDO activity indicated by an improved Trp to Kyn ratio | 1-MDT levels in tumor, fold higher than upon MalCa/IdoEs treatment ([10]; SKOV3 tumor tissue): ~2 fold | plasma platinum concentration, fold higher than oxaliplatin or OAc/OAc [11]: ~12 fold | platinum levels in blood plasma [11]: 5.9 mg/kg | Platinum ratio tumor:kidney ([11]; ratio of mean platinum levels): 1.2 | Platinum ratio tumor:liver ([11]; ratio of mean platinum levels): 0.7 | anticancer activity against CT26 tumors (in words) [12]: activity comparable to MalCa/IdoCa
